Laboratory results as given in patent US20260250318A1, “COMPOSITIONS AND METHODS FOR CROSSING THE BLOOD BRAIN BARRIER” (VOYAGER THERAPEUTICS, INC., priority 2022, published 2026).

Assays:
[1] = test system: brains, heart, liver, muscle, and DRG of the NHPs; assay: Maturation of TTM-001 and TTM-002 capsids, NGS enrichment in NHP tissues; assay type: in vivo; details: relative to AAV9 control
Summary of the method: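 Variants carry mutations within and flanking the loop IV peptide insert: positions 450–466 were triplet-randomized, while positions 449–466 received low-frequency point mutations. The combined pool went into two NHPs, and each peptide was scored by NGS enrichment ratio against AAV9.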

brain = assay: Matured TTM-001 and TTM-002 variants, NGS enrichment in mouse brain; assay type: in vivo, mice; details: relative to AAV9 control
[2] = NGS fold-enrichment, DRG of NHPs
[3] = NGS fold-enrichment, RNA, brain of NHPs
[4] = NGS fold-enrichment, heart of NHPs
[5] = NGS fold-enrichment, liver DNA of NHPs
[6] = NGS fold-enrichment, liver RNA of NHPs
[7] = NGS fold-enrichment, muscle of NHPs
[8] = NGS fold-enrichment, brain of mice
[9] = NGS fold-enrichment of matured AAV capsid variants, NHP brain, RNA

Row | Sequence | Fold Enrichment relative to AAV9, DRG (NHP) [1, 2] [fold] | Fold Enrichment relative to AAV9, Brain (NHP) [1, 3] [fold] | Fold Enrichment relative to AAV9, Heart (NHP) [1, 4] [fold] | Fold Enrichment relative to AAV9, Liver DNA (NHP) [1, 5] [fold] | Fold Enrichment relative to AAV9, Liver RNA (NHP) [1, 6] [fold] | Fold Enrichment relative to AAV9, Muscle (NHP) [1, 7] [fold] | Fold Enrichment relative to AAV9, Brain (Mouse) (brain; [8]) [fold] | Fold Enrichment relative to AAV9, Brain (NHP) [1, 9] [fold] | Fold Enrichment relative to AAV9, DRG (NHP) ([1]; NHP DRG) [fold] | Fold Enrichment relative to AAV9, Heart (NHP) ([1]; NHP heart) [fold] | Fold Enrichment relative to AAV9, Liver DNA (NHP) ([1]; NHP liver, DNA) [fold] | Fold Enrichment relative to AAV9, Liver RNA (NHP) ([1]; NHP liver, RNA) [fold] | Fold Enrichment relative to AAV9, Muscle (NHP) ([1]; NHP muscle) [fold] | Fold Enrichment relative to AAV9, Brain (Mouse) (brain; mouse brain) [fold] | also measured
1 | KTINGSGSPHSKAQAKLT | 0.000 | 71.154 | 0.273 | 0.777 | 1.591 | 0.017 | 130.132 | – | – | – | – | – | – | – | –
2 | KTINGSGSPHSKAQAMHT | 0.000 | 62.756 | 0.000 | 0.393 | 0.976 | 0.010 | 84.056 | – | – | – | – | – | – | – | –
3 | KTINGSGSPHSKAQAPAT | 0.000 | 61.934 | 0.169 | 0.197 | 0.696 | 0.015 | 127.420 | – | – | – | – | – | – | – | –
4 | KTINGSGSPHSKAQAPST | 0.200 | 60.696 | 0.005 | 0.263 | 0.751 | 0.000 | 115.528 | – | – | – | – | – | – | – | –
5 | KTINGSGSPHSKAQDRPT | 0.132 | 70.831 | 0.006 | 0.379 | 0.039 | 0.000 | 66.800 | – | – | – | – | – | – | – | –
6 | KTINGSGSPHSKAQDRQS | – | – | – | – | – | – | – | 55.137 | 1.146 | 0.016 | 0.086 | 0.644 | 0.106 | 55.701 | –
7 | KTINGSGSPHSKAQERPT | 0.000 | 63.460 | 0.011 | 0.173 | 0.810 | 0.000 | 57.506 | – | – | – | – | – | – | – | –
8 | KTINGSGSPHSKAQERST | – | – | – | – | – | – | – | 58.021 | 0.000 | 0.011 | 0.409 | 0.829 | 0.005 | 87.656 | –
9 | KTINGSGSPHSKAQFMCT | – | – | – | – | – | – | – | 55.916 | 0.000 | 0.000 | 0.448 | 0.078 | 0.000 | 81.959 | –
10 | KTINGSGSPHSKAQFPST | 0.000 | 75.677 | 0.004 | 0.127 | 0.849 | 0.000 | 119.712 | – | – | – | – | – | – | – | Fold Enrichment relative to AAV9, Brain (NHP) ([1]; NGS fold-enrichment of RNA, NHP brain): 75.677 fold; Fold Enrichment relative to AAV9, DRG (NHP) ([1]; NGS fold-enrichment, NHP DRG): 0.000 fold; Fold Enrichment relative to AAV9, Heart (NHP) ([1]; NGS fold-enrichment, NHP heart): 0.004 fold; Fold Enrichment relative to AAV9, Liver DNA (NHP) ([1]; NGS fold-enrichment, NHP liver DNA): 0.127 fold; Fold Enrichment relative to AAV9, Liver RNA (NHP) ([1]; NGS fold-enrichment, NHP liver RNA): 0.849 fold; Fold Enrichment relative to AAV9, Muscle (NHP) ([1]; NGS fold-enrichment, NHP muscle): 0.000 fold; Fold Enrichment relative to AAV9, Brain (Mouse) (brain; NGS fold-enrichment, mouse brain): 119.712 fold
11 | KTINGSGSPHSKAQGAIT | – | – | – | – | – | – | – | 57.627 | 0.000 | 0.000 | 0.161 | 0.594 | 0.000 | 95.696 | –
12 | KTINGSGSPHSKAQGHHT | – | – | – | – | – | – | – | 56.559 | 0.000 | 0.000 | 0.117 | 0.632 | 0.000 | 71.050 | –
13 | KTINGSGSPHSKAQGILT | – | – | – | – | – | – | – | 58.418 | 0.000 | 0.005 | 0.192 | 0.569 | 0.010 | 102.631 | –
14 | KTINGSGSPHSKAQGIRT | 0.041 | 61.952 | 0.000 | 0.502 | 0.897 | 0.012 | 155.013 | – | – | – | – | – | – | – | –
15 | KTINGSGSPHSKAQGQQA | 0.000 | 64.128 | 0.185 | 0.195 | 0.063 | 0.000 | 64.116 | – | – | – | – | – | – | – | –
16 | KTINGSGSPHSKAQGSLT | – | – | – | – | – | – | – | 54.717 | 0.000 | 0.006 | 0.298 | 0.480 | 0.013 | 142.786 | –
17 | KTINGSGSPHSKAQHGLT | – | – | – | – | – | – | – | 55.999 | 0.000 | 0.000 | 0.244 | 1.913 | 0.101 | 117.191 | –
18 | KTINGSGSPHSKAQHPST | 0.000 | 62.255 | 0.044 | 0.301 | 1.345 | 0.000 | 101.103 | – | – | – | – | – | – | – | –
